The values that follow come from patent publication US20040192672A1, “Iodobenzopyran-4-one derivatives having fungicidal activity” (priority 2001, published 2004).

Common to all, as to format: in vivo
Experiment [1] concerns powdery mildew (Blumeria graminis f. sp. tritici) strains resistant to strobilurin derivatives. Nature of the experiment: Greenhouse test on pathogenic strains resistant to strobilurin derivatives. The following applies: wheat, 13 days of incubation. As for the experimental part: This example gives an illustration of the biological efficacy of the compounds of formula (I) on pathogenic strains resistant to strobilurin derivatives.
The experiment was performed in a greenhouse.
Resistant strains were isolated and samples taken in 2001 in the north of Germany in the Bremen region in a place treated with pyraclostrobin and with picoxystrobin. These strains are characterized by their resistance to these strobilurin-type compounds. They were then kept in a controlled-environment chamber on wheat plants (Kanzler variety) treated with trifloxystrobin.
The tested compounds were sprayed on the wheat plants using solutions for application diluted in water to a volume equivalent to 250 l/ha. 24 h later, the plants were inoculated with powdery mildew (Blumeria graminis f. sp. tritici).
The extent of the disease was evaluated on each plant after 13 days of incubation.

The subject of experiment [2] is barley powdery mildew (Blumeria graminis f. sp. hordei). Nature of the experiment: Greenhouse preventive synergy test, barley powdery mildew. The protocol:
(§1) This example gives an illustration of the synergistic effect obtained using the compounds according to the invention in the form of a mixture with compounds of the strobilurin type, in particular trifloxystrobin, triazole, in particular fluquinconazole. The compounds according to the invention were tested in a greenhouse under preventive conditions.
(§2) The combinations of active ingredients in Table 4 were evaluated.
(§3) The compounds and mixtures tested were sprayed on wheat plants:
(§4) volume for application equivalent to 250 l/ha.
(§5) On the day following the application, the wheat plants were inoculated with powdery mildew (Blumeria graminis f. sp. tritici), brown rust (Puccinia recondita), glume blotches (Septoria tritici and Septoria nodorum) and the barley plants with powdery mildew (Blumeria graminis f. sp. hordei). Once the diseases had developed, the evaluation was made by determining the extent of disease per pot.
(§6) The level of synergy was calculated using the Colby formula in order to calculate the theoretical efficacy and to compare it to the observed efficacy:
(§7) Theoretical efficacy of A+B=efficacy of A (%)+efficacy of B (%)−[efficacy of A (%)×efficacy of B (%)/100]

In experiment [3] the test system is wheat powdery mildew (Blumeria graminis f. sp. tritici). Nature of the experiment: Greenhouse preventive synergy test, wheat powdery mildew. The protocol:
as §1, §2, §3, §4, §5, §6, §7

Experiment [4] deals with wheat powdery mildew (Blumeria graminis). Description: Field test of frequency of attack on winter wheat. The settings on record: 125 g of active ingredient/ha per application (A and B), same conditions as Table 1. The protocol:
(§8) The compounds were tested for their activity against wheat powdery mildew (Blumeda graminis).
(§9) Winter wheat (Appolo variety) was planted in France (department of Marne) in 1 m^2 plots, at the rate of 200 kg/ha (soil: coloured rendzina) at a depth of 3 cm. The compounds of the invention were applied to the wheat plants in two portions: Application A at the 1 cm ear stage and then Application B at the second visible node stage. Each of these applications was carried out by spraying an aqueous solution of the compounds at a dose of 125 g of active ingredient/ha.
(§10) During Application A, the intensity of attack by the fungus Blumeria graminis is estimated at 3% of the total foliar volume.
Under the same conditions, a test of frequency of attack was performed by evaluating the percentage of second leaf (from the ear) attacked by the fungus Blumeria graminis.

The test system is the same in experiment [5]. Description: Field test of intensity of attack on winter wheat. The settings on record: 125 g of active ingredient/ha per application (A and B), 52 days after Application B, winter wheat field plots. As for the experimental part:
as §8, §9, §10
The tests of intensity of attack are carried out 52 days after Application B by evaluating the percentage of affected surface area of the second leaves (counted from the ear).

For experiment [6], the system named is wheat brown rust (Puccinia recondita). Nature of the experiment: Greenhouse preventive synergy test, wheat brown rust. The protocol: as §1, §2, §3, §4, §5, §6, §7
In experiment [7] the test system is wheat glume blotch (Septoria tritici). Nature of the experiment: Greenhouse preventive synergy test, wheat glume blotch (Septoria tritici). As for the experimental part: as §1, §2, §3, §4, §5, §6, §7
Experiment [8] deals with wheat glume blotch (Septoria nodorum). Nature of the experiment: Greenhouse preventive synergy test, wheat glume blotch (Septoria nodorum). The protocol: as §1, §2, §3, §4, §5, §6, §7

For `CON=C(C(=O)OC)c1ccccc1CON=C(C)c1cccc(C(F)(F)F)c1` [Trifloxystrobin], the “Percentage of leaves affected by powdery mildew” value in experiment [1] (31 g/ha), in experiment [1] (62 g/ha), in experiment [1] (125 g/ha) and in experiment [1] (250 g/ha) was 100% throughout. Besides, the Observed efficacy is recorded as 0% in experiment [2] (Table 11, 16 g/ha); 0% in experiment [2] (Table 11, 62 g/ha); 30% in experiment [3] (Table 10, 16 g/ha); 40% in experiment [3] (Table 10, 31 g/ha); 50% in experiment [3] (Table 10, 62 g/ha).
For the molecule `Fc1ccc(Oc2ccnc3cc(Cl)cc(Cl)c23)cc1` [Compound B, quinoxyfen], the “% of second leaf attacked” value in experiment [4] amounted to 73.3%. In experiment [5], the “% affected surface area per (second) leaf” value worked out at 4.91%.
Taken in the same sequence, the figures for `CCCCOc1oc2ccc(I)cc2c(=O)c1CCC` [Compound 3, 2-butoxy-6-iodo-3-propylbenzopyran-4-one] were 54.0% and 2.51%.
For `CCCOc1oc2ccc(I)cc2c(=O)c1CCC` [Compound 2, 6-iodo-2-propoxy-3-propylbenzopyran-4-one], the “% affected surface area per (second) leaf” value in experiment [5] is recorded as 2.53%.
In the case of `CCCc1c(OCC)oc2ccc(I)cc2c1=O` [Compound 1, 2-ethoxy-6-iodo-3-propylbenzopyran-4-one], the “Percentage of leaves affected by powdery mildew” value in experiment [1] (31 g/ha) and in experiment [1] (62 g/ha) was 0% throughout. Further, the Observed efficacy in experiment [2] (Table 6, 12 g/ha) came out at 50%; in experiment [2] (Table 11, 16 g/ha), 50%; in experiment [2] (Table 11, 25 g/ha) it was 75%; in experiment [6] (Table 7, 50 g/ha), 0%; in experiment [7] (Table 8, 50 g/ha), 0%; in experiment [3] (Table 5, 6 g/ha), 25%. In addition, the Observed efficacy in experiment [3] (Table 10, 6 g/ha) is 25%; in experiment [3] (Table 10, 16 g/ha) it was 50%; in experiment [3] (Table 10, 25 g/ha) it was 75%; in experiment [8] (Table 9, 50 g/ha), 0%. Also, the “% of second leaf attacked” value in experiment [4] was 28.0%. Moreover, in experiment [5], the “% affected surface area per (second) leaf” value was determined as 0.56%.
Consider `O=c1c2cc(F)ccc2nc(-n2cncn2)n1-c1ccc(Cl)cc1Cl` [fluquinconazole], for which the Observed efficacy in experiment [2] (Table 6, 12 g/ha) is listed as 25%; in experiment [2] (Table 6, 25 g/ha), 25%; in experiment [2] (Table 6, 62 g/ha) it was 75%; in experiment [6] (Table 7, 100 g/ha) it was 60%; in experiment [7] (Table 8, 100 g/ha), 60%; in experiment [3] (Table 5, 6 g/ha) it was 0%. Besides, the Observed efficacy came to 0% in experiment [3] (Table 5, 12 g/ha); 0% in experiment [3] (Table 5, 31 g/ha); 75% in experiment [8] (Table 9, 100 g/ha).
